Data published in US20120041185A1, “dTDP-BETA-D-FUCOFURANOSE, ITS PREPARATION METHOD AND USE” (TIANJIN BIOCHIP TECHNOLOGY CORPORATION, priority 2007, published 2012).

Columns and labels:
[1] = tested on: Fcf1 (recombinant dTDP-D-GIcO reductase); test: Divalent cation requirements of Fcf1 (effects of cations on enzyme activity); type: biochemical, E. coli O52; settings: for Transformation rate (%): in the presence of 5 mM divalent ion chloride, 100 without ion; for influence on conversion ratio / inhibition to enzyme activity: 5 mM divalent ion chloride
Protocol: 20 μl reactions in 0.5 ml centrifugal tube contain 2 mM dTDP-D-Glco, 3 mM NADPH, 50 mM Tris-HCl buffer (pH7.4), 5 mM divalent ion chloride and 0.25 μM recombinant dTDP-D-GIcO reductase protein purified in example 2. The reactions are proceeded at certain temperatures for 2 hours. Then add chloroform of equal volume to extract protein. The aqueous phase is detected by Beckman Coulter P/ACE MDQ capillary electrophoresis.

[2] = biological target: T1, Fcf2 (recombinant dTDP-D-Glcfucofuranose mutase) (Escherichia coli, UniProt Q6E7F1); test: Divalent cation requirements of Fcf2 (effects of cations on enzyme activity); type: biochemical, E. coli O52; settings: for Transformation rate (%): in the presence of 5 mM divalent ion, 9.5 without ion
T1 construct: The entire ORF encodes a protein composed of 377 amino acids; His6 (N); made in house; host or cells: E. coli BL21
Protocol: 25 μl reactions in 0.5 ml centrifugal tube contain 2 mM dTDP-D-fucose, 50 mM Tris-HCl buffer (pH 7.4) 5 mM divalent ion chloride and 3.9 μM recombinant dTDP-D-Glcfucofuranose mutase protein purified in example 2. The reactions are proceeded at certain temperature for 3 hours. Then add chloroform of equal volume to extract protein. The aqueous phase is detected by Beckman Coulter P/ACE MDQ capillary electrophoresis.

T1 sequence (Q6E7F1 whole entry): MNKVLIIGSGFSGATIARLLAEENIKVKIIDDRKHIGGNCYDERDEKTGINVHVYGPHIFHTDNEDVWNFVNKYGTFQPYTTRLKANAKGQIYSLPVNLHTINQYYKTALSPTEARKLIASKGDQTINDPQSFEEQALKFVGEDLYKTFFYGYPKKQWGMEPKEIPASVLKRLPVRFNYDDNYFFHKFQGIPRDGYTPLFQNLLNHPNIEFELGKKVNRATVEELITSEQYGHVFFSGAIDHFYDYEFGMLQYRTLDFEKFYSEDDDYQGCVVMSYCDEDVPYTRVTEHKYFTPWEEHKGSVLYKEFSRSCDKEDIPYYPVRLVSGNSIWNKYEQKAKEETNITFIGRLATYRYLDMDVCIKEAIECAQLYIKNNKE

Structure (SMILES) | Transformation rate (%) [1] | Transformation rate (%) [2] | influence on conversion ratio / inhibition to enzyme activity [1] | inhibition to enzyme activity ([2]; 5 mM divalent ion)
[Ca+2].[Cl-].[Cl-] [Ca^2+, CaCl2] | 98.1% | 9.6% |  | 
[Cl-].[Cl-].[Co+2] [Co^2+, CoCl2] | 89.2% | 8.8% |  | 
[Cl][Cu][Cl] [Cu^2+, CuCl2] | 11.8% | 0% | highest inhibition | obvious inhibition
[Cl][Fe][Cl] [Fe^2+, FeCl2] | 90.5% | 9.1% |  | 
[Cl-].[Cl-].[Mg+2] [Mg^2+, MgCl2] | 100% | 9.7% | no influence | 
[Cl][Mn][Cl] [Mn^2+, MnCl2] | 100% | 5.4% | no influence | 
